# From patent US20120177693A1, “DEEP LUNG PULMONARY DELIVERY OF TREPROSTINIL” (Aradigm Corporation, priority 2008, published 2012)
# Where “and” joins values, the source holds several entries; their conditions need not be identical. Identical values can stand only once.
# Experiments:
# [1] = Gamma scintigraphy of 99mTc-DTPA radiolabeled treprostinil sodium inhaled via AERx Essence System or Nebu-Tec Optineb nebulizer, two-way crossover, 14 healthy male subjects; format: in vivo, human; conditions: for Calculated Lung Dose: monosodium salt; for Dose (calculated dose to lung): Median
# From the text: This was an open label study conducted in a single-center, using a randomized, two-way crossover design. Sixteen healthy adult male subjects were to be enrolled to receive study treatments. Upon provision of written informed consent, each study candidate underwent a pre-study evaluation and screening to determine eligibility to participate.
# On each of two dosing days, eligible subjects underwent dosing with ^99mTc-labeled treprostinil sodium using either the AERx Essence System or the Nebu-Tec Optineb nebulizer. Following their initial study dose, subjects underwent a washout period of approximately 48 hours before completing a second (crossover) study dose.
# Immediately following each study dose, subjects underwent gamma scintigraphy and multiple samplings of venous blood to characterize treprostinil lung deposition and plasma pharmacokinetics.
# Subjects also underwent a Krypton-81m (^81mKr) gas ventilation imaging procedure. This procedure could have been performed on any dosing day followed by a 30 minute washout before any of the aerosol dosing procedures, if there were logistical/scheduling problems, ventilation imaging could have been done after dosing. Alternatively the ^81mKr ventilation scan could have been performed on a separate visit. Additionally transmission images were also acquired this could have been performed on any dosing day prior to any of the aerosol dosing procedures or on a separate visit
# A single “bulk” treprostinil sodium formulation (600 μg/mL) was used for both the Nebu-Tec Optineb nebulizer and the AERx Essence. The bulk drug solutions were diluted by the addition of ^99mTc-DTPA (2000 MBq/mL) at a ratio of 19:1, i.e. 0.05 mL of ^99mTc-DTPA was added to 0.950 mL of bulk drug solution. Each mL of the radiolabeled drug solutions therefore contained 100 MBq of ^99mTc-DTPA and 570 μg of treprostinil. The radiolabel ^99mTc as ^99mTc-DTPA was acquired from an approved supplier (i.e., the Medical Physics Department, University Hospital of Wales, Heath, Cardiff [Manufacturers License Number: MS/IMP18523]).
# In this study, the radiolabel marker (^99mTc-DTPA) deposition profiles obtained following administration of a radiolabeled treprostinil sodium formulation will be evaluated using gamma to assess the performance for the two delivery systems. Gamma scintigraphy offers a precise and accurate method of evaluating the deposition of an inhaled radiolabeled aerosol in the oropharynx and lung.
# To compare the emitted dose, delivered lung dose, and the central-to-peripheral (sC/P) lung deposition of radiolabeled treprostinil sodium delivered via the AERx Essence System versus the Nebu-Tec Optineb nebulizer using gamma scintigraphy.
# In addition the following secondary efficacy variables were determined, the dose (μg) of treprostinil deposited in the lung, the percent dose (emitted and loaded) of radiolabeled treprostinil sodium in the oropharyngeal region from both devices, the percent loaded dose remaining in both devices and associated equipment e.g. mouthpiece.
# Scintigraphic data were used to determine the fraction of the loaded dose delivered to the lung which was subsequently utilised to estimate the lung dose in terms of μg of Treprostinil. For AERx, the calculation of lung dose was derived by normalising the emitted dose to lung for the fraction (%) of the loaded dose retained post-administration i.e. within the device and dosage forms. The actual dose within the AERx strips (a single dose consisted of two strips) was calculated from the nominal treprostinil concentration adjusted for the actual concentration determined by HPLC assay of the stock radiolabeled drug solutions on each dosing day (see Table 14.2.1.5).
# The Optineb device contained a drug reservoir (nebuliser cup) from which each dose (six separate puffs) was metered. To determine the dose available to the subject an in vitro test to collect a single emitted dose (ED) was performed for each device following subject dosing.
# [2] = male, human, in vivo
# [3] = Safety and tolerability of inhaled treprostinil sodium (adverse events, laboratory, vital signs, ECG, spirometry), 14 healthy male subjects
smiles,measurement,setting,value
"CCCCC[C@H](O)CC[C@@H]1[C@H]2Cc3cccc(OCC(=O)[O-])c3C[C@H]2C[C@H]1O.[Na+] [treprostinil, (1R,2R,3aS,9aS)-[[2,3,3a,4,9,9a-Hexahydro-2-hydroxyl-1-[(3S)-3-hydroxyoctyl]-1H-benz[f]inden-5-yl]oxy]acetic acid monosodium salt]",Greater treprostinil lung dose for AERx than for the nebulizer,[1]; AERx vs nebulizer,20%
same,Calculated Lung Dose,"[1]; via AERx, Max, listed as Treprostinil",30.76 µg
same,Calculated Lung Dose,"[1]; via AERx, Max",30.756 µg
same,Calculated Lung Dose,"[1]; via AERx, Mean, listed as Treprostinil",26.07 µg
same,Calculated Lung Dose,"[1]; via AERx, Mean",26.07 µg and 26.072 µg
same,Dose (calculated dose to lung),[1]; via AERx,27.383 µg
same,Calculated Lung Dose,"[1]; via AERx, Min, listed as Treprostinil",12.77 µg
same,Calculated Lung Dose,"[1]; via AERx, Min",12.770 µg
same,Calculated Lung Dose,"[1]; via Optineb, Max, listed as Treprostinil",30.69 µg
same,Calculated Lung Dose,"[1]; via Optineb, Max",30.691 µg
same,Calculated Lung Dose,"[1]; via Optineb, Mean, listed as Treprostinil",19.58 µg
same,Calculated Lung Dose,"[1]; via Optineb, Mean",19.58 µg and 19.579 µg
same,Dose (calculated dose to lung),[1]; via Optineb,18.470 µg
same,Calculated Lung Dose,"[1]; via Optineb, Min, listed as Treprostinil",9.30 µg
same,Calculated Lung Dose,"[1]; via Optineb, Min",9.296 µg
same,Adverse events considered possibly related to the study medication,[2],15
same,Adverse events considered probably related to study medication,[2],11
same,Adverse events considered unlikely related to the study medication,[2],1
same,Adverse events recorded as mild in intensity,[2],23
same,Adverse events recorded as moderate in intensity,[2],4
same,Number of Subjects (% brackets) with CHEST DISCOMFORT,[2],2 (14.3)
same,Number of Subjects (% brackets) with COUGH,[2],6 (42.9)
same,"Number of Subjects with CHEST DISCOMFORT, relationship POSSIBLE",[2],1
same,"Number of Subjects with CHEST DISCOMFORT, relationship PROBABLE",[2],1
same,"Number of Subjects with CHEST DISCOMFORT, relationship UNLIKELY",[2],0
same,"Number of Subjects with COUGH, relationship UNLIKELY",[2],0
same,"Number of Subjects with DIZZINESS, relationship POSSIBLE",[2],2
same,"Number of Subjects with DIZZINESS, relationship PROBABLE",[2],0
same,"Number of Subjects with DIZZINESS, relationship UNLIKELY",[2],0
same,"Number of Subjects with DRY THROAT, relationship POSSIBLE",[2],1
same,"Number of Subjects with DRY THROAT, relationship PROBABLE",[2],0
same,"Number of Subjects with DRY THROAT, relationship UNLIKELY",[2],0
same,"Number of Subjects with DYSPNOEA, relationship POSSIBLE",[2],0
same,"Number of Subjects with DYSPNOEA, relationship PROBABLE",[2],1
same,"Number of Subjects with DYSPNOEA, relationship UNLIKELY",[2],0
same,"Number of Subjects with HEADACHE, relationship PROBABLE",[2],0
same,"Number of Subjects with HEADACHE, relationship UNLIKELY",[2],0
same,"Number of Subjects with PHARYNG[…], relationship POSSIBLE",[2],1
same,"Number of Subjects with PHARYNG[…], relationship PROBABLE",[2],0
same,"Number of Subjects with PHARYNG[…], relationship UNLIKELY",[2],0
same,"Number of Subjects with PLEURITIC PAIN, relationship POSSIBLE",[2],0
same,"Number of Subjects with PLEURITIC PAIN, relationship PROBABLE",[2],1
same,"Number of Subjects with PLEURITIC PAIN, relationship UNLIKELY",[2],0
same,"Number of Subjects with SYNCOPE VASOVAGAL, relationship POSSIBLE",[2],1
same,"Number of Subjects with SYNCOPE VASOVAGAL, relationship PROBABLE",[2],0
same,"Number of Subjects with SYNCOPE VASOVAGAL, relationship UNLIKELY",[2],0
same,Total treatment emergent adverse events,[2],27
same,"Vaso-vegal episode, duration",[2],14 min
same,"Vaso-vegal episode, time of occurrence after administration",[2],22 min
same,Changes in laboratory parameters,"[3]; biochemistry, hematology, urinalysis",no clinically-significant changes
same,Serious Adverse Events (SAE's) or Suspected Unexpected Serious Adverse Reactions (SUSAR's),[3]; both devices,no Serious Adverse Events
same,Tolerability in healthy subjects,[3]; for inhalation,well-tolerated
same,"Changes in laboratory parameters, physical examination, vital signs, respiratory function or ECGs","[3]; human, in vivo",no clinically-significant changes
same,"Changes in vital signs (blood pressure, pulse and oral temperature)","[3]; human, in vivo, po",no clinically-significant changes
same,Number of Subjects (% brackets) with […],[3]; via AERx Essence,0
same,Number of Subjects (% brackets) with […],[3]; via Nebu-Tec Optineb,1 (7.1)
same,"Number of Subjects with […], relationship POSSIBLE",[3]; via Nebu-Tec Optineb,0
same,"Number of Subjects with […], relationship PROBABLE",[3]; via Nebu-Tec Optineb,0
same,"Number of Subjects with […], relationship UNLIKELY",[3]; via Nebu-Tec Optineb,1
